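Dose response: 5 concentrations. Exposure: 48 h. Format: 96-well plates. Endpoint: linear interpolation; highest concentration if not reached. At the GI50, growth is halved. The concentration for full growth arrest is given as TGI.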
Columns and labels:
Test in all cases: DTP human tumour cell line panel, 48 h
HOP-62 NSCLC = tested on: HOP-62 NSCLC
NCI-H460 lung = tested on: NCI-H460 lung
SF-539 CNS = tested on: SF-539 CNS
BT-549 breast = tested on: BT-549 breast
SK-MEL-5 melanoma = tested on: SK-MEL-5 melanoma
M14 melanoma = tested on: M14 melanoma
KM12 colon = tested on: KM12 colon
DU-145 prostate = tested on: DU-145 prostate
SNB-75 CNS = tested on: SNB-75 CNS
A549 NSCLC = tested on: A549 NSCLC

Structure (SMILES)	GI50 (HOP-62 NSCLC)	TGI (HOP-62 NSCLC)	GI50 (NCI-H460 lung)	TGI (NCI-H460 lung)	GI50 (SF-539 CNS)	TGI (SF-539 CNS)	GI50 (BT-549 breast)	TGI (BT-549 breast)	GI50 (SK-MEL-5 melanoma)	TGI (SK-MEL-5 melanoma)	GI50 (M14 melanoma)	TGI (M14 melanoma)	GI50 (KM12 colon)	TGI (KM12 colon)	GI50 (DU-145 prostate)	TGI (DU-145 prostate)	GI50 (SNB-75 CNS)	TGI (SNB-75 CNS)	GI50 (A549 NSCLC)	TGI (A549 NSCLC)
O=Cc1c[nH]c2ccc(-c3csc4ccccc34)cc12	3.06 µM	39.9 µM	3.46 µM	> 100 µM	2.41 µM	7.52 µM	2.5 µM	8.75 µM	3.31 µM	> 100 µM	3.19 µM	> 100 µM	3.39 µM	> 100 µM	3.18 µM	22.2 µM	1.25 µM	5.88 µM	4.29 µM	> 100 µM
COc1cc(-c2nccc3[nH]c(-c4cccc5[nH]ccc45)nc23)cc(OC)c1OC			< 0.01 µM	1.11 µM	< 0.01 µM	0.0139 µM			< 0.01 µM	0.0108 µM	< 0.01 µM	10.1 µM	< 0.01 µM	13.4 µM	< 0.01 µM	15.6 µM	< 0.01 µM	16.5 µM	< 0.01 µM	1.78 µM
NS(=O)(=O)c1cccc(-c2cc3ccncc3cc2OCc2ccccc2)c1	11.6 µM	> 25 µM	11.7 µM	> 25 µM	8.62 µM	> 25 µM	7.65 µM	> 25 µM	4.83 µM	> 15.8 µM	14.5 µM	> 25 µM	10.7 µM	> 25 µM	17.1 µM	> 25 µM	3.23 µM	> 25 µM	10.3 µM	> 25 µM
O=[N+]([O-])c1ccc(Oc2cccc(C(F)(F)F)c2)c([N+](=O)[O-])c1	4.01 µM	16.1 µM	3.1 µM	10.2 µM	3.05 µM	11.5 µM			2.53 µM	7.72 µM	2.79 µM	14 µM	2.52 µM	6.73 µM	2.33 µM	5.38 µM	5.11 µM	37.9 µM	4.56 µM	16.5 µM
O=C(O)CC1C(=O)OC2C3COC(=O)c4cc(O)c(O)c(O)c4-c4c(cc(O)c(O)c4O)C(=O)OC2C(OC(=O)c2cc(O)c(O)c4c2C1C(O)C(=O)O4)C(OC(=O)c1cc(O)c(O)c(O)c1)O3 (configuration not stated)		> 100 µM		31.4 µM		> 100 µM				> 100 µM		> 100 µM		42.6 µM		> 100 µM		41.5 µM		> 100 µM
COc1cc(C2CC(=O)c3c(C)nn(-c4nc5ccccc5[nH]4)c3C2)cc(OC)c1OC (configuration not stated)	3.61 µM	> 100 µM					76.6 µM	> 100 µM	> 100 µM	> 100 µM	> 100 µM	> 100 µM	> 100 µM	> 100 µM	> 100 µM	> 100 µM	1.72 µM	3.46 µM		
COc1ccc2oc(-c3cc4cc(OC)ccc4o3)cc2c1		> 100 µM		> 100 µM						> 100 µM		> 100 µM		> 100 µM				> 100 µM		> 100 µM
COC(=O)[C@H]1CC(=O)C=C2CCCC21 (some centres not stated)		> 100 µM		> 100 µM		> 100 µM				> 100 µM		> 100 µM		> 100 µM				> 100 µM		> 100 µM
